Molecules are shown by their SMILES.

This note sets out measurements from ChEMBL document CHEMBL4334508, “Oleanolic Acid Derivatives as Potential Inhibitors of HIV-1 Protease” (J Nat Prod, 2019).

The target in this assay is Protease (Human immunodeficiency virus 1, UniProt Q9YQ12). The assay is described as follows: Inhibition of HIV1 protease expressed in Escherichia coli using Abz-Ala-Arg-Val-Nle-Tyr(NO2)-Glu-Ala-Nle-NH2 peptide as substrate by FRET assay.
Protease, sequence (Q9YQ12 whole entry): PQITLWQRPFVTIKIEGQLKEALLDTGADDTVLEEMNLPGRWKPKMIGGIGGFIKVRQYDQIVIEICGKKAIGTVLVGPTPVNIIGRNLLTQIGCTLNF
As for `CC1(C)CC[C@]2(C(=O)NCCCCCCCCCCC(=O)O)CC[C@]3(C)C(=CC[C@@H]4[C@@]5(C)CC[C@H](OC(=O)CCCC(=O)O)C(C)(C)[C@@H]5CC[C@]43C)[C@@H]2C1`, the IC50 (as a rule, the midpoint of a concentration-inhibition curve) was greater than 50 µM.
Molecule `CCC(=O)O[C@H]1CC[C@]2(C)[C@H]3CC=C4[C@@H]5CC(C)(C)CC[C@]5(C(=O)NCCCC(=O)O)CC[C@@]4(C)[C@]3(C)CC[C@H]2C1(C)C` had a concentration for half-maximal inhibition (IC50) greater than 50 µM.
For `CCCCCCCCCCCC(=O)O[C@H]1CC[C@]2(C)[C@H]3CC=C4[C@@H]5CC(C)(C)CC[C@]5(C(=O)NCCCC(=O)NCC(=O)O)CC[C@@]4(C)[C@]3(C)CC[C@H]2C1(C)C` the value was greater than 50 µM; for `CCCCCC(=O)O[C@H]1CC[C@]2(C)[C@H]3CC=C4[C@@H]5CC(C)(C)CC[C@]5(C(=O)NCCCCCC(=O)NCC(=O)O)CC[C@@]4(C)[C@]3(C)CC[C@H]2C1(C)C`, greater than 50 µM; for `CC(C)(CC(=O)O)CC(=O)O[C@H]1CC[C@]2(C)[C@H]3CC=C4[C@@H]5CC(C)(C)CC[C@]5(C(=O)NCCCC(=O)NCC(=O)O)CC[C@@]4(C)[C@]3(C)CC[C@H]2C1(C)C`, greater than 50 µM.
Regarding `CC1(C)CC[C@]2(C(=O)NCCCCCC(=O)O)CC[C@]3(C)C(=CC[C@@H]4[C@@]5(C)CC[C@H](OC(=O)c6ccccc6)C(C)(C)[C@@H]5CC[C@]43C)[C@@H]2C1`, the IC50 is greater than 50 µM.
Under `CC1(C)CC[C@]2(C(=O)NCCCC(=O)O)CC[C@]3(C)C(=CC[C@@H]4[C@@]5(C)CC[C@H](OC(=O)CCC(=O)O)C(C)(C)[C@@H]5CC[C@]43C)[C@@H]2C1` stands 17.7 µM.
Under `CCCC(=O)O[C@H]1CC[C@]2(C)[C@H]3CC=C4[C@@H]5CC(C)(C)CC[C@]5(C(=O)NCCCC(=O)O)CC[C@@]4(C)[C@]3(C)CC[C@H]2C1(C)C` stands greater than 50 µM; under `CCCCCCCCCCCC(=O)O[C@H]1CC[C@]2(C)[C@H]3CC=C4[C@@H]5CC(C)(C)CC[C@]5(C(=O)NCCCC(=O)O)CC[C@@]4(C)[C@]3(C)CC[C@H]2C1(C)C`, greater than 50 µM.
For `CC1(C)CC[C@]2(C(=O)NCCCCCC(=O)NCC(=O)O)CC[C@]3(C)C(=CC[C@@H]4[C@@]5(C)CC[C@H](OC(=O)CCC(=O)O)C(C)(C)[C@@H]5CC[C@]43C)[C@@H]2C1` the value was greater than 50 µM; for `CCC(=O)O[C@H]1CC[C@]2(C)[C@H]3CC=C4[C@@H]5CC(C)(C)CC[C@]5(C(=O)NCCCC(=O)NCC(=O)O)CC[C@@]4(C)[C@]3(C)CC[C@H]2C1(C)C`, greater than 50 µM; for `CC1(C)CC[C@]2(C(=O)NCCCC(=O)O)CC[C@]3(C)C(=CC[C@@H]4[C@@]5(C)CC[C@H](OC(=O)CCCC(=O)O)C(C)(C)[C@@H]5CC[C@]43C)[C@@H]2C1`, 20.4 µM.
In the case of `CC1(C)CC[C@]2(C(=O)NCCCC(=O)O)CC[C@]3(C)C(=CC[C@@H]4[C@@]5(C)CC[C@H](OC(=O)c6ccccc6)C(C)(C)[C@@H]5CC[C@]43C)[C@@H]2C1`, the 50% inhibitory concentration (IC50) is greater than 50 µM.
For `CC1(C)CC[C@]2(C(=O)NCCCCCCCCCCC(=O)O)CC[C@]3(C)C(=CC[C@@H]4[C@@]5(C)CC[C@H](OC(=O)CCC(=O)O)C(C)(C)[C@@H]5CC[C@]43C)[C@@H]2C1` the value was greater than 50 µM; for `CC1(C)CC[C@]2(C(=O)NCCCC(=O)NCC(=O)O)CC[C@]3(C)C(=CC[C@@H]4[C@@]5(C)CC[C@H](OC(=O)c6ccccc6)C(C)(C)[C@@H]5CC[C@]43C)[C@@H]2C1`, greater than 50 µM; for `CC(=O)O[C@H]1CC[C@]2(C)[C@H]3CC=C4[C@@H]5CC(C)(C)CC[C@]5(C(=O)NCCCCCC(=O)NCC(=O)O)CC[C@@]4(C)[C@]3(C)CC[C@H]2C1(C)C`, greater than 50 µM.
Under `CCC(=O)O[C@H]1CC[C@]2(C)[C@H]3CC=C4[C@@H]5CC(C)(C)CC[C@]5(C(=O)NCCCCCCCCCCC(=O)O)CC[C@@]4(C)[C@]3(C)CC[C@H]2C1(C)C` stands greater than 50 µM; under `CCCC(=O)O[C@H]1CC[C@]2(C)[C@H]3CC=C4[C@@H]5CC(C)(C)CC[C@]5(C(=O)NCCCCCCCCCCC(=O)O)CC[C@@]4(C)[C@]3(C)CC[C@H]2C1(C)C`, greater than 50 µM; under `CC(C)(CC(=O)O)CC(=O)O[C@H]1CC[C@]2(C)[C@H]3CC=C4[C@@H]5CC(C)(C)CC[C@]5(C(=O)NCCCC(=O)O)CC[C@@]4(C)[C@]3(C)CC[C@H]2C1(C)C`, 33.3 µM.
Under `CC1(C)CC[C@]2(C(=O)NCCCCCC(=O)NCC(=O)O)CC[C@]3(C)C(=CC[C@@H]4[C@@]5(C)CC[C@H](OC(=O)CCCC(=O)O)C(C)(C)[C@@H]5CC[C@]43C)[C@@H]2C1` stands greater than 50 µM.
The molecule `CC(=O)O[C@H]1CC[C@]2(C)[C@H]3CC=C4[C@@H]5CC(C)(C)CC[C@]5(C(=O)NCCCC(=O)O)CC[C@@]4(C)[C@]3(C)CC[C@H]2C1(C)C` came in with an IC50 of 32.6 µM. That is a double-digit micromolar value.
With `CC(C)(CC(=O)O)CC(=O)O[C@H]1CC[C@]2(C)[C@H]3CC=C4[C@@H]5CC(C)(C)CC[C@]5(C(=O)NCCCCCC(=O)O)CC[C@@]4(C)[C@]3(C)CC[C@H]2C1(C)C`, the IC50 was 12.4 µM.
For `CC1(C)CC[C@]2(C(=O)NCCCC(=O)NCC(=O)O)CC[C@]3(C)C(=CC[C@@H]4[C@@]5(C)CC[C@H](OC(=O)CCCC(=O)O)C(C)(C)[C@@H]5CC[C@]43C)[C@@H]2C1` the value was greater than 50 µM; for `CCCC(=O)O[C@H]1CC[C@]2(C)[C@H]3CC=C4[C@@H]5CC(C)(C)CC[C@]5(C(=O)NCCCC(=O)NCC(=O)O)CC[C@@]4(C)[C@]3(C)CC[C@H]2C1(C)C`, greater than 50 µM; for `CC1(C)CC[C@]2(C(=O)NCCCC(=O)NCC(=O)O)CC[C@]3(C)C(=CC[C@@H]4[C@@]5(C)CC[C@H](OC(=O)CCC(=O)O)C(C)(C)[C@@H]5CC[C@]43C)[C@@H]2C1`, greater than 50 µM.
Under `CC(=O)O[C@H]1CC[C@]2(C)[C@H]3CC=C4[C@@H]5CC(C)(C)CC[C@]5(C(=O)NCCCCCC(=O)O)CC[C@@]4(C)[C@]3(C)CC[C@H]2C1(C)C` stands greater than 50 µM; under `CCCCCCCCCCCC(=O)O[C@H]1CC[C@]2(C)[C@H]3CC=C4[C@@H]5CC(C)(C)CC[C@]5(C(=O)NCCCCCCCCCCC(=O)O)CC[C@@]4(C)[C@]3(C)CC[C@H]2C1(C)C`, greater than 50 µM; under `CC1(C)CC[C@]2(C(=O)NCCCCCC(=O)NCC(=O)O)CC[C@]3(C)C(=CC[C@@H]4[C@@]5(C)CC[C@H](OC(=O)c6ccccc6C(=O)O)C(C)(C)[C@@H]5CC[C@]43C)[C@@H]2C1`, 3.1 µM.
Under `CCCCCC(=O)O[C@H]1CC[C@]2(C)[C@H]3CC=C4[C@@H]5CC(C)(C)CC[C@]5(C(=O)NCCCCCCCCCCC(=O)O)CC[C@@]4(C)[C@]3(C)CC[C@H]2C1(C)C` stands greater than 50 µM.
The molecule `CCCCCC(=O)O[C@H]1CC[C@]2(C)[C@H]3CC=C4[C@@H]5CC(C)(C)CC[C@]5(C(=O)NCCCC(=O)O)CC[C@@]4(C)[C@]3(C)CC[C@H]2C1(C)C` came in with an IC50 greater than 50 µM.
For `CC(=O)O[C@H]1CC[C@]2(C)[C@H]3CC=C4[C@@H]5CC(C)(C)CC[C@]5(C(=O)NCCCCCCCCCCC(=O)O)CC[C@@]4(C)[C@]3(C)CC[C@H]2C1(C)C` the value was greater than 50 µM; for `CCCCCC(=O)O[C@H]1CC[C@]2(C)[C@H]3CC=C4[C@@H]5CC(C)(C)CC[C@]5(C(=O)NCCCC(=O)NCC(=O)O)CC[C@@]4(C)[C@]3(C)CC[C@H]2C1(C)C`, greater than 50 µM; for `CC1(C)CC[C@]2(C(=O)NCCCCCC(=O)O)CC[C@]3(C)C(=CC[C@@H]4[C@@]5(C)CC[C@H](OC(=O)CCCC(=O)O)C(C)(C)[C@@H]5CC[C@]43C)[C@@H]2C1`, 1 µM.
`CCCCCC(=O)O[C@H]1CC[C@]2(C)[C@H]3CC=C4[C@@H]5CC(C)(C)CC[C@]5(C(=O)NCCCCCC(=O)O)CC[C@@]4(C)[C@]3(C)CC[C@H]2C1(C)C` returned an IC50 greater than 50 µM.
Under `CC(=O)O[C@H]1CC[C@]2(C)[C@H]3CC=C4[C@@H]5CC(C)(C)CC[C@]5(C(=O)NCCCC(=O)NCC(=O)O)CC[C@@]4(C)[C@]3(C)CC[C@H]2C1(C)C` stands greater than 50 µM.
Consider `CCCCCCCCCCCC(=O)O[C@H]1CC[C@]2(C)[C@H]3CC=C4[C@@H]5CC(C)(C)CC[C@]5(C(=O)NCCCCCC(=O)NCC(=O)O)CC[C@@]4(C)[C@]3(C)CC[C@H]2C1(C)C`, for which the IC50 is greater than 50 µM.
With `CC1(C)CC[C@]2(C(=O)NCCCCCC(=O)NCC(=O)O)CC[C@]3(C)C(=CC[C@@H]4[C@@]5(C)CC[C@H](OC(=O)c6ccccc6)C(C)(C)[C@@H]5CC[C@]43C)[C@@H]2C1`, the IC50 is greater than 50 µM.
Under `CC(C)(CC(=O)O)CC(=O)O[C@H]1CC[C@]2(C)[C@H]3CC=C4[C@@H]5CC(C)(C)CC[C@]5(C(=O)NCCCCCCCCCCC(=O)O)CC[C@@]4(C)[C@]3(C)CC[C@H]2C1(C)C` stands greater than 50 µM.
Under `CCCC(=O)O[C@H]1CC[C@]2(C)[C@H]3CC=C4[C@@H]5CC(C)(C)CC[C@]5(C(=O)NCCCCCC(=O)NCC(=O)O)CC[C@@]4(C)[C@]3(C)CC[C@H]2C1(C)C` stands greater than 50 µM; under `CCC(=O)O[C@H]1CC[C@]2(C)[C@H]3CC=C4[C@@H]5CC(C)(C)CC[C@]5(C(=O)NCCCCCC(=O)NCC(=O)O)CC[C@@]4(C)[C@]3(C)CC[C@H]2C1(C)C`, greater than 50 µM; under `CCC(=O)O[C@H]1CC[C@]2(C)[C@H]3CC=C4[C@@H]5CC(C)(C)CC[C@]5(C(=O)NCCCCCC(=O)O)CC[C@@]4(C)[C@]3(C)CC[C@H]2C1(C)C`, greater than 50 µM.
In the case of `CCCC(=O)O[C@H]1CC[C@]2(C)[C@H]3CC=C4[C@@H]5CC(C)(C)CC[C@]5(C(=O)NCCCCCC(=O)O)CC[C@@]4(C)[C@]3(C)CC[C@H]2C1(C)C`, the IC50 is greater than 50 µM.
In the case of `CCCCCCCCCCCC(=O)O[C@H]1CC[C@]2(C)[C@H]3CC=C4[C@@H]5CC(C)(C)CC[C@]5(C(=O)NCCCCCC(=O)O)CC[C@@]4(C)[C@]3(C)CC[C@H]2C1(C)C`, the half-inhibitory concentration (IC50) was greater than 50 µM.
Under `CC1(C)CC[C@]2(C(=O)NCCCC(=O)NCC(=O)O)CC[C@]3(C)C(=CC[C@@H]4[C@@]5(C)CC[C@H](OC(=O)c6ccccc6C(=O)O)C(C)(C)[C@@H]5CC[C@]43C)[C@@H]2C1` stands 2.2 µM.
Molecule `CC1(C)CC[C@]2(C(=O)NCCCCCCCCCCC(=O)O)CC[C@]3(C)C(=CC[C@@H]4[C@@]5(C)CC[C@H](OC(=O)c6ccccc6)C(C)(C)[C@@H]5CC[C@]43C)[C@@H]2C1` showed an IC50 greater than 50 µM.
